In patent US6919338B2, “Substituted quinazoline derivatives and their use as inhibitors of aurora-2 kinase” (AstraZeneca AB, priority 2000, dated 2005):

How the values were obtained:
aurora2 kinase = biological target: T1, aurora2 kinase (Homo sapiens, UniProt O14965); test: In vitro aurora2 kinase inhibition test; assay type: biochemical
T1 construct: made in house; host or cells: Spodoptera frugiperda Sf21 insect cells (baculovirus)
T1 sequence (O14965 1-403): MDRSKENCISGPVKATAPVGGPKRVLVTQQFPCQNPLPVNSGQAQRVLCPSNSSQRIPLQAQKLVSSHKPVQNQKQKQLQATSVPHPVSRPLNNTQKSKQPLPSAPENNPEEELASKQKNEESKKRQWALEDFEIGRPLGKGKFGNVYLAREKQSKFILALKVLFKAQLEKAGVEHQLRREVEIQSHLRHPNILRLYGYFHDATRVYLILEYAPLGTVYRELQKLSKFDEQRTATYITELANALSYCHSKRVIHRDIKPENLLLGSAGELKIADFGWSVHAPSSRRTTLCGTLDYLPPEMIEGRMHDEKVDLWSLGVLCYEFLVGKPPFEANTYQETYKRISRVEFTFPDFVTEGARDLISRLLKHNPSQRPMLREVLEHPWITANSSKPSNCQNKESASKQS

[1] = system: human tumour cell line MCF7; test: In vitro cell proliferation assay; assay type: cell-based; conditions: MCF7, 72 h, MCF-7 cells, 3 days with compound, CyQUANT, read-out: concentration giving 50% inhibition of cell proliferation
Text: (a) In Vitro Cell Proliferation Assay
This assay determines the ability of a test compound to inhibit the growth of adherent mammalian cell lines, for example the human tumour cell line MCF7. MCF-7 (ATCC HTB-22) or other adherent cells were typically seeded at 1×10^3 cells per well (excluding the peripheral wells) in DMEM (Sigma Aldrich) without phenol red, plus 10% foetal calf serum, 1% L-glutamine and 1% penicillin/streptomycin in 96 well tissue culture treated clear plates (Costar). The following day (day 1), the media was removed from a no treatment control plate and the plate stored at −80° C. The remaining plates were dosed with compound (diluted from 10 mM stock in DMSO using DMEM (without phenol red, 10% FCS, 1% L-glutamine, 1% penicillin/streptomycin). Untreated control wells were included on each plate. After 3 days in the presence/absence of compound (day 4) the media was removed and the plates stored at −80° C. Twenty four hours later the plates were thawed at room temperature and cell density determined using the CyQUANT cell proliferation assay kit (c-7026/c-7027 Molecular Probes Inc.) according to manufacturers directions. Briefly, 200 μl of a cell lysis/dye mixture (10 μl of 20× cell lysis buffer B, 190 μl of sterile water, 0.25 μl of CYQUANT GR dye) was added to each well and the plates incubated at room temperature for 5 minutes in the dark. […]

MCF7 cells = test: In vitro cell cycle analysis assay; assay type: cell-based, human; conditions: 24 hours, 10 μM Compound 52 (text b2735 says 1 μM)
Experimental: (a) In Vitro Cell Cycle Analysis Assay
This assay determines the ability of a test compound to arrest cells in specific phases of the cell cycle. Many different mammalian cell lines could be used in this assay and MCF7 cells are included here as an example. MCF-7 cells were seeded at 3×10^5 cells per T25 flask (Costar) in 5 ml DMEM (no phenol red 10% FCS, 1% L-glutamine 1% penicillin/streptomycin). Flasks were then incubated overnight in a humidified 37° C. incubator with 5% CO2. The following day 1 ml of DMEM (no phenol red 10% FCS, 1% L-glutamine 1% penicillin/streptomycin) carrying the appropriate concentration of test compound solubilised in DMSO was added to the flask. A no compound control treatments was also included (0.5% DMSO). The cells were then incubated for a defined time (usually 24 hours) with compound. […] The samples were then transferred to LPS tubes and DNA content per cell analysed by Fluorescence activated cell sorting (FACS) using a FACScan flow cytometer (Becton Dickinson). Typically 25000 events were counted and recorded using CellQuest v1.1 software (Verity Software). Cell cycle distribution of the population was calculated using Modfit software (Verity Software) and expressed as percentage of cells in G0/G1, S and G2/M phases of the cell cycle. […]

`COc1cc2c(Nc3nc(CC(=O)Nc4ccc(F)cc4)cs3)ncnc2cc1OCCCN1CCOCC1` [Compound 52] was tested, and the IC50 (aurora2 kinase) was 167 nM, the IC50 [1] was 616 nM and the “% Cells in G2/M” value (MCF7 cells) was >50%.
